According to PubChem BioAssay AID276 (DTP/NCI, 2004):
Values joined by “and” are separate entries in the source; they are usually repeats but may differ in a detail not shown here. Equal values may be shown once. Inconclusive results and toxic doses are left out. Positions of bridges follow the written chain, without caps; N, C: chain ends. Residues, ends and D or L forms follow the SMILES beside them.

System: B6C3F1 mice, Lewis lung carcinoma iv, survival T/C
Assay: NCI In Vivo Anticancer Drug Screen. Data for tumor model Lewis Lung Carcinoma (intravenous) in B6C3F1 mice
Settings: endpoint: median survival time, higher = longer survival
How it was run: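 T/C ratio derived from survival of compound-treated versus vehicle-treated mice bearing transplantable tumors.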

[1] = dose: 25.0 mg/kg/injection, schedule: Q01DX009 (ip), vehicle: saline with Tween-80
[2] = dose: 50.0 mg/kg/injection, schedule: Q01DX009 (ip), vehicle: saline with Tween-80
[3] = dose: 100.0 mg/kg/injection, schedule: Q01DX009 (ip), vehicle: saline with Tween-80
[4] = dose: 200.0 mg/kg/injection, schedule: Q01DX009 (ip), vehicle: saline with Tween-80
[5] = dose: 25.0 mg/kg/injection, schedule: Q01DX009 (ip), vehicle: saline
[6] = dose: 50.0 mg/kg/injection, schedule: Q01DX009 (ip), vehicle: saline
[7] = dose: 100.0 mg/kg/injection, schedule: Q01DX009 (ip), vehicle: saline
[8] = dose: 200.0 mg/kg/injection, schedule: Q01DX009 (ip), vehicle: saline
[9] = dose: 12.5 mg/kg/injection, schedule: Q01DX009 (ip), vehicle: saline
[10] = dose: 12.5 mg/kg/injection, schedule: Q01DX009 (ip), vehicle: Klucel (hydroxypropylcellulose) (HPC)
[11] = dose: 25.0 mg/kg/injection, schedule: Q01DX009 (ip), vehicle: Klucel (hydroxypropylcellulose) (HPC)
[12] = dose: 50.0 mg/kg/injection, schedule: Q01DX009 (ip), vehicle: Klucel (hydroxypropylcellulose) (HPC)
[13] = dose: 100.0 mg/kg/injection, schedule: Q01DX009 (ip), vehicle: Klucel (hydroxypropylcellulose) (HPC)

What does the source list for C/C=C(\C)c1cc(=O)c2c(C)cc3c(c2o1)C(=O)c1c(O)c(C2CC(C)(N(C)C)C(OC(C)=O)C(C)O2)cc(C2CC(N(C)C)C(O)C(C)O2)c1C3=O (stereo not given)?
T/C (dose: 0.15 mg/kg/injection, schedule: Q01DX009 (ip), vehicle: suspension in saline): 101 % of control; T/C (dose: 0.31 mg/kg/injection, schedule: Q01DX009 (ip), vehicle: suspension in saline): 103 % of control; T/C (dose: 0.62 mg/kg/injection, schedule: Q01DX009 (ip), vehicle: suspension in saline): 97 % of control; T/C (dose: 1.25 mg/kg/injection, schedule: Q01DX009 (ip), vehicle: suspension in saline): 107 % of control; T/C (dose: 2.5 mg/kg/injection, schedule: Q01DX009 (ip), vehicle: suspension in saline): 111 % of control; T/C (dose: 5.0 mg/kg/injection, schedule: Q01DX009 (ip), vehicle: suspension in saline): 106 % of control

Which T/C (dose: 31.25 micrograms/kg/injection, schedule: Q01DX009 (ip), vehicle: Klucel (hydroxypropylcellulose) (HPC)) does the source give for CCC(C)C1NC(=O)C(CC(C)C)NC(=O)C(C(C)C)NC(=O)C2CSSCC(NC1=O)C(=O)N2 (stereo not given) (cyclo(CCVLI); disulfide 1-2; configuration not given here) here?
Its T/C is 93 % of control.

What about the T/C (dose: 62.5 micrograms/kg/injection, schedule: Q01DX009 (ip), vehicle: Klucel (hydroxypropylcellulose) (HPC)) of the same molecule?
The T/C was 99 % of control.

What about the T/C (dose: 125.0 micrograms/kg/injection, schedule: Q01DX009 (ip), vehicle: Klucel (hydroxypropylcellulose) (HPC)) of the same molecule?
The T/C was 93 % of control.

And the T/C (dose: 250.0 micrograms/kg/injection, schedule: Q01DX009 (ip), vehicle: Klucel (hydroxypropylcellulose) (HPC))?
Its T/C is 98 % of control.

And the T/C (dose: 500.0 micrograms/kg/injection, schedule: Q01DX009 (ip), vehicle: Klucel (hydroxypropylcellulose) (HPC))?
The T/C was 88 % of control.

What about the T/C (dose: 1000.0 micrograms/kg/injection, schedule: Q01DX009 (ip), vehicle: Klucel (hydroxypropylcellulose) (HPC)) of the same molecule?
The T/C was 100 % of control.

What does the source list for C[C@H](N)C(=O)N[C@@H]1[C@H]2C(=C(O)C[C@@H](O)[C@@H]2O)C(=O)O[C@]1(C)C(Cl)Cl?
T/C (dose: 0.19 mg/kg/injection, schedule: Q01DX009 (ip), vehicle: Klucel (hydroxypropylcellulose) (HPC)): 97 % of control; T/C (dose: 0.38 mg/kg/injection, schedule: Q01DX009 (ip), vehicle: Klucel (hydroxypropylcellulose) (HPC)): 101 % of control; T/C (dose: 0.75 mg/kg/injection, schedule: Q01DX009 (ip), vehicle: Klucel (hydroxypropylcellulose) (HPC)): 111 % of control; T/C (dose: 1.5 mg/kg/injection, schedule: Q01DX009 (ip), vehicle: Klucel (hydroxypropylcellulose) (HPC)): 100 % of control

How did the T/C (dose: 2.0 mg/kg/injection, schedule: Q01DX009 (ip), vehicle: saline) turn out when CCCCNCCCNCCCNC(=O)c1csc(-c2csc(CCNC(=O)C(NC(=O)C(C)C(O)C(C)NC(=O)C(NC(=O)c3nc(C(CC(N)=O)NCC(N)C(N)=O)nc(N)c3C)C(OC3OC(CO)C(O)C(O)C3OC3OC(CO)C(O)C(OC(N)=O)C3O)c3cnc[nH]3)C(C)O)n2)n1 (stereo not given) was run?
Its T/C is 112 % of control.

What about the T/C (dose: 8.0 mg/kg/injection, schedule: Q01DX009 (ip), vehicle: saline) of the same molecule?
Its T/C is 155 % of control.

And the T/C (dose: 16.0 mg/kg/injection, schedule: Q01DX009 (ip), vehicle: saline)?
Its T/C is 184 % of control.

Which T/C (dose: 6.25 mg/kg/injection, schedule: Q01DX009 (ip), vehicle: saline with Tween-80) does the source give for Cc1ccc2c(c1)N=C(Nc1ccccc1)N=S2(C)=O (stereo not given) here?
The T/C was 99 % of control.

What about the T/C (dose: 12.5 mg/kg/injection, schedule: Q01DX009 (ip), vehicle: saline with Tween-80) of the same molecule?
The T/C was 92 % of control.

And the T/C [1]?
Its T/C is 93 % of control.

And the T/C [2]?
Its T/C is 95 % of control.

And the T/C [3]?
The T/C was 108 % of control.

What about the T/C [4] of the same molecule?
The T/C was 119 % of control.

Which results are given for Nc1ncnc2c1cnn2Cc1ccc(Cl)cc1?
T/C [5]: 94 % of control; T/C [6]: 106 % of control; T/C [7]: 111 % of control; T/C [8]: 93 % of control

For O=C1N(CC2CO2)CCN1CC1CO1 (stereo not given), which T/C [9] is on record?
Its T/C is 114 % of control.

And the T/C [5]?
The T/C was 112 % of control.

What about the T/C [6] of the same molecule?
Its T/C is 114 % of control.

With Cc1ccoc1 as the molecule, how does the T/C (dose: 8.3 mg/kg/injection, schedule: Q03HX027 (ip), vehicle: saline with Tween-80) read?
The T/C was 107 % of control.

What about the T/C (dose: 16.6 mg/kg/injection, schedule: Q03HX027 (ip), vehicle: saline with Tween-80) of the same molecule?
Its T/C is 112 % of control.

What about the T/C (dose: 33.3 mg/kg/injection, schedule: Q03HX027 (ip), vehicle: saline with Tween-80) of the same molecule?
Its T/C is 100 % of control.

And the T/C (dose: 66.6 mg/kg/injection, schedule: Q03HX027 (ip), vehicle: saline with Tween-80)?
Its T/C is 102 % of control.

O=C(O)CP(=O)(O)O was tested. Which T/C [9] did it give?
Its T/C is 94 % of control.

What about the T/C [5] of the same molecule?
Its T/C is 97 % of control.

And the T/C [6]?
Its T/C is 97 % of control.

And the T/C [7]?
Its T/C is 95 % of control.

And the T/C [8]?
Its T/C is 92 % of control.

What about the T/C (dose: 400.0 mg/kg/injection, schedule: Q01DX009 (ip), vehicle: saline) of the same molecule?
The T/C was 94 % of control.

What about the T/C (dose: 800.0 mg/kg/injection, schedule: Q01DX009 (ip), vehicle: saline) of the same molecule?
Its T/C is 94 % of control.

Which T/C (dose: 1.0 mg/kg/injection, schedule: Q01DX009 (ip), vehicle: distilled water + Tween-80) does the source give for CC(=O)OC1C(O)C(C)OC(OC2C(OC(=O)C3CCC4C(C3)OC3(CC(OC(=O)/C=C/c5ccccc5)C(C)CO3)C43CO3)OC(C)C(O)C2OC(C)=O)C1O (stereo not given) here?
Its T/C is 105 % of control.

What about the T/C (dose: 2.0 mg/kg/injection, schedule: Q01DX009 (ip), vehicle: distilled water + Tween-80) of the same molecule?
The T/C was 99 % of control.

What about the T/C (dose: 4.0 mg/kg/injection, schedule: Q01DX009 (ip), vehicle: distilled water + Tween-80) of the same molecule?
Its T/C is 100 % of control.

And the T/C (dose: 8.0 mg/kg/injection, schedule: Q01DX009 (ip), vehicle: distilled water + Tween-80)?
The T/C was 102 % of control.

And the T/C (dose: 16.0 mg/kg/injection, schedule: Q01DX009 (ip), vehicle: distilled water + Tween-80)?
The T/C was 91 % of control.

With Nc1ccc2c(c1)CN1C(=O)c3ccccc3C1=N2 as the molecule, how does the T/C [1] read?
Its T/C is 117 % of control.

What about the T/C [2] of the same molecule?
Its T/C is 116 % of control.

What does the source list for CN(C)N=Nc1ccccc1?
T/C [10]: 108 % of control; T/C [11]: 115 % of control

With CN(C)CCNc1ccc([N+](=O)[O-])c2sc3ccccc3c(=O)c12 as the molecule, how does the T/C (dose: 3.12 mg/kg/injection, schedule: Q01DX009 (ip), vehicle: saline) read?
The T/C was 96 % of control.

And the T/C (dose: 6.25 mg/kg/injection, schedule: Q01DX009 (ip), vehicle: saline)?
The T/C was 108 % of control.

What about the T/C [9] of the same molecule?
The T/C was 115 % of control.

What about the T/C [5] of the same molecule?
Its T/C is 119 % of control.

How did the T/C [10] turn out when CC1CCC(n2cnc3c(Cl)ncnc32)O1 (stereo not given) was run?
The T/C was 91 % of control.

And the T/C [11]?
Its T/C is 107 % of control.

What about the T/C [12] of the same molecule?
The T/C was 107 % of control.

And the T/C [13]?
Its T/C is 108 % of control.

And the T/C (dose: 200.0 mg/kg/injection, schedule: Q01DX009 (ip), vehicle: Klucel (hydroxypropylcellulose) (HPC))?
The T/C was 113 % of control.

What about the T/C (dose: 400.0 mg/kg/injection, schedule: Q01DX009 (ip), vehicle: Klucel (hydroxypropylcellulose) (HPC)) of the same molecule?
The T/C was 108 % of control.

What does the source list for O=C1C=C[C@H](O)[C@@]2(CO)O[C@@H]12?
T/C (dose: 0.31 mg/kg/injection, schedule: Q01DX009 (ip), vehicle: saline with Tween-80): 101 % of control; T/C (dose: 0.62 mg/kg/injection, schedule: Q01DX009 (ip), vehicle: saline with Tween-80): 101 % of control; T/C (dose: 1.25 mg/kg/injection, schedule: Q01DX009 (ip), vehicle: saline with Tween-80): 114 % of control; T/C (dose: 2.5 mg/kg/injection, schedule: Q01DX009 (ip), vehicle: saline with Tween-80): 98 % of control; T/C (dose: 5.0 mg/kg/injection, schedule: Q01DX009 (ip), vehicle: saline with Tween-80): 102 % of control; T/C (dose: 10.0 mg/kg/injection, schedule: Q01DX009 (ip), vehicle: saline with Tween-80): 93 % of control

Which results are given for CSc1ncnc2c1ncn2C1OC(CO)C(O)C1O (stereo not given)?
T/C (dose: 3.12 mg/kg/injection, schedule: Q01DX009 (ip), vehicle: saline + alcohol): 96 % of control; T/C (dose: 6.25 mg/kg/injection, schedule: Q01DX009 (ip), vehicle: saline + alcohol): 97 % of control; T/C (dose: 12.5 mg/kg/injection, schedule: Q01DX009 (ip), vehicle: saline + alcohol): 100 % of control; T/C (dose: 25.0 mg/kg/injection, schedule: Q01DX009 (ip), vehicle: saline + alcohol): 105 % of control; T/C (dose: 50.0 mg/kg/injection, schedule: Q01DX009 (ip), vehicle: saline + alcohol): 117 % of control

For COc1c(C)c2c(c(O)c1C/C=C(\C)CCC(=O)O)C(=O)OC2, which T/C [2] is on record?
Its T/C is 91 % of control.

And the T/C [3]?
The T/C was 91 % of control.

What about the T/C [4] of the same molecule?
Its T/C is 98 % of control.

What does the source list for Cc1cc(Nc2ccc3c(c2)OCO3)c2cc3c(cc2n1)OCO3?
T/C [10]: 100 % of control; T/C [11]: 98 % of control; T/C [12]: 98 % of control and 104 % of control; T/C [13]: 101 % of control

What does the source list for O=C1c2cccc3cc([N+](=O)[O-])cc(c23)C(=O)N1CCN1CCCC1?
T/C (dose: 3.0 mg/kg/injection, schedule: Q01DX009 (ip), vehicle: saline with Tween-80): 106 % of control; T/C (dose: 6.0 mg/kg/injection, schedule: Q01DX009 (ip), vehicle: saline with Tween-80): 115 % of control

What does the source list for [Cl][Co]([Cl])[Cl].[NH-]CC[N-]CC[NH-]?
T/C [5]: 103 % of control; T/C [6]: 96 % of control; T/C [7]: 93 % of control
